Experimental data taken from patent US4772603A, “Method for treating congestive heart failure, angina, occlusive peripheral vascular disease or cerebral vascular disease in mammals” (Beecham Group p.l.c., priority 1984, dated 1988).
Where two headings read alike, the source gives them in different places.

Experiments:
[1] = system: hypoxic skeletal muscle; experiment: Effect of compounds on skeletal muscle oxygen tension in the rat (with reduction in mean arterial blood pressure); type: in vivo; conditions: for CHANGE IN PO2 (average change in muscle PO2 produced by treatment) / REDUCTION IN MABP (Mean Arterial Blood Pressure): mean±S.D., 6 rats/treatment; for oxygen tension (PO2) in hypoxic skeletal muscle: at approximately a hypotensive dose
From the text: Values are mean±S.D.; 6 rats/treatment
MABP=Mean Arterial Blood Pressure
Change in PO2 =the average change in muscle PO2 produced by treatment

[2] = system: Rat isolated portal vein; experiment: Rat isolated portal vein: inhibition of spontaneous contractions and of contractions due to added calcium; set-up: species or system rat (male Sprague Dawley); conditions: for IC50: Rattus norvegicus, 0.25 h, 15 min contact time
Method: (1) Rat isolated portal vein. Male Sprague Dawley rats (250-350 g) were killed by cervical dislocation. Portal veins (2-3 cm in length) were set up under 0.8-1 g tension in a 10 ml organ bath containing Krebs-Henseleit solution, at 37° C., of the following composition (mM): NaCl 118, NaHCO3 25, glucose 5, KH2 PO4 1.18, KCl 4.69, MgSO4 0.59, CaCl2 ·H2 O 1.87. The tissue was aerated with a 95% oxygen and 5% carbon dioxide mixture. Isometric tension was recorded using a Devices strain gauge and recorder. Each preparation was allowed 1h to equilibrate before the addition of test compound. The ability of a compound to inhibit the contractions due to added calcium (3 mM CaCl2) was determined in tissues bathed in Krebs-Henseleit solution containing 0.05 mM CaCl2 (in order to reduce spontaneous contractions). Then percentage inhibition (mean±s.e.m.; 6-9 tissues) of the amplitude of the spontaneous contractions, and contractions due to added calcium, was determined after 15 min contact time with test compound.
IC50 is concentration of compound reducing contractions by 50%; parenthesis indicate 95% fiducial limits.

[3] = system: Rabbit isolated mesenteric artery; experiment: Rabbit isolated mesenteric artery: inhibition of contractions due to 30 and 90 mM KCl; set-up: species or system rabbit (male New Zealand White)
Method: (2) Rabbit isolated mesenteric artery. Mesenteric arteries (3 mm rings) were removed from male New Zealand White rabbits and mounted, at a resting tension of 1.5-2.0 g, in a 10 ml organ bath containing a Ringer solution, at 37° C., of the following composition (mM): NaCl 120.8; KCl 5.9; CaCl2 2.5; MgCl2 1.2; HEPES 5.8; glucose 11.5. The bathing solution was bubbled with a 95% oxygen and 5% carbon dioxide mixture. Each preparation was allowed 1-11/2 h to equilibrate before the addition of either 30 or 90 mM KCl to contract the tissue. The ability of test compound to relax the sustained contraction due to KCl was determined by assessing the % reduction (mean±s.e.m.; 4-9 tissues) produced by varying concentrations of test compound.
IC50 is the concentration of compound 1 halving the contraction due to KCl; parenthesis indicate 95% fiducial limits.

SMILES	CHANGE IN PO2 (average change in muscle PO2 produced by treatment) ([1]; 0.3 mg/kg intraduodenally)	REDUCTION IN MABP (Mean Arterial Blood Pressure) ([1]; 0.3 mg/kg intraduodenally) [MMHG]	oxygen tension (PO2) in hypoxic skeletal muscle [1]	IC50 ([2]; contractions due to added calcium (3 mM CaCl2), 0.05 mM CaCl2 Krebs-Henseleit, 95% fiducial limits (0.87-3.5), read-out: IC50 Ca^2+ (3 mM) (concentration reducing contractions by 50%)) [nM]	IC50 ([2]; spontaneous contractions, 95% fiducial limits (0.67-7.8), read-out: IC50 Spontaneous (concentration reducing contractions by 50%)) [nM]	inhibitor of spontaneous contractions and of those due to added calcium (comparison in words) ([2]; spontaneous versus added calcium contractions)	antagonism of contractions due to a partially / fully depolarising concentration of potassium ([3]; 30 mM (partially) and 90 mM (fully depolarising) KCl)	IC50 ([3]; Oryctolagus cuniculus, read-out: IC50 90 mM KCl (concentration halving the contraction due to KCl)) [nM]	effect against a high concentration of KCl ([3]; high KCl (90 mM))	CHANGE IN PO2 (average change in muscle PO2 produced by treatment) ([1]; 1.0 mg/kg intraduodenally)	REDUCTION IN MABP (Mean Arterial Blood Pressure) ([1]; 1.0 mg/kg intraduodenally) [MMHG]
CC1(C)Oc2ccc(C#N)cc2[C@@H](N2CCCC2=O)[C@@H]1O (relative stereo) [Compound 1, 6-cyano-3,4-dihydro-2,2-dimethyl-trans-4-(2-oxo-1-pyrrolidinyl)-2H-benzo[b]pyran-3-ol]	+8.7 ± 2.3 TORR	44 ± 4	large increase	150	120	equipotent	antagonises the contractions due to a partially, but not a fully, depolarising concentration of potassium	> 10000	effectiveness		
CCN(C(C)=O)[C@@H]1c2cc(C#N)ccc2OC(C)(C)[C@H]1O (relative stereo) [Compound 2, trans-4-N-acetylethylamino-6-cyano-3,4-dihydro-2,2-dimethyl-2H-benzo[b]pyran-3-ol]			large increase							+8.2 ± 3.7 TORR	36 ± 4
